Read-outs that look alike come from different tables or passages of the source.
How the values were obtained:
TraR = target: T1, TraR (Agrobacterium tumefaciens, UniProt P33905); test: cell-based; conditions: for A. tumefaciens-TraR Activation [%]: 10 μM ligand; for A. tumefaciens-TraR Activation [%] / A. tumefaciens-TraR Inhibition [%] / inhibition at 10 µM: A. tumefaciens WCF47 (pCF372), normalized to OOHL; for A. tumefaciens-TraR Inhibition [%]: 10 μM synthetic ligand against 100 nM OOHL; for activation at 10 µM: read-out: A. tumefaciens-TraR Activation [%]; for inhibition at 10 µM: read-out: A. tumefaciens-TraR Inhibition [%], 10 μM synthetic ligand against 100 nM OOHL
T1 construct: These strains lack their AHL synthase (I) genes, but retain their native R genes; endogenous in cells; host or cells: A. tumefaciens WCF47 (Δ-traI) with PtraI-lacZ plasmid pCF372

LuxR = target: T2, LuxR (Aliivibrio fischeri, UniProt P35327); test: cell-based; assay type: cell-based, Vibrio fischeri; conditions: for V. fischeri-LuxR Inhibition [%]: 5 μM synthetic ligand against 5 μM OHHL; for V. fischeri-LuxR Inhibition [%] / inhibition at 5 µM: V. fischeri ES114 (Δ-luxI), normalized to OHHL; for IC50: LuxR IC50, determined against 5 μM OHHL; for inhibition at 5 µM: read-out: V. fischeri-LuxR Inhibition [%], 5 μM synthetic ligand against 5 μM OHHL
T2 construct: a Δ-luxI derivative of V. fischeri ES114, in which the native lux operon behaves as the bioluminescent reporter; endogenous in cells; host or cells: V. fischeri ES114 (Δ-luxI)
Outline: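 Whole-cell luminescence reporter in V. fischeri ES114 (WT, Δ-luxI or Δ-luxR) or E. coli, overnight cultures diluted 1:10 and grown with compound at RT (E. coli 30° C) to OD600 0.35-0.4 (4-6 h). Luminescence normalized to cell density, triplicates; EC50/IC50 from sigmoidal fit.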

[1] = tested on: wild-type V. fischeri ES114; test: Luminescence dose response in wild-type V. fischeri ES114; assay type: cell-based, Vibrio fischeri; conditions: relative to OHHL
Procedure: Vibrio fischeri assay procedures. For primary agonism assays, an appropriate amount of concentrated control or PHL (11) stock solution, to give a final concentration of 200 μM, was added to wells in a 96-well multititer plate. An overnight culture of V. fischeri ES114 (WT, Δ-luxI or Δ-luxR) was diluted 1:10 with LBS medium. A-200 μL portion of the diluted culture was added to each well of the plate. Plates were grown at RT with shaking (200 rpm) until the OD600=0.35-0.4 (4-6 h). Luminescence then was measured and normalized to cell density per well. […] Similar methods were used for dose response assays, except the concentrations of controls and PHLs 11 used were between 0.02 and 2×10^5 nM. All assays were performed in triplicate. IC50 and EC50 values were calculated using GraphPad Prism software using a sigmoidal curve fit.

QscR = target: T3, QscR (Pseudomonas aeruginosa, UniProt G3XD77); test: QscR competitive antagonism reporter gene assay (β-gal) against DDHL in recombinant E. coli (pJN105Q); assay type: cell-based
T3 construct: expressed in transfected cells; host or cells: recombinant E. coli (pJN105Q) with β-gal promoter fusion
Procedure: The bacterial reporter strains used in this study were: E. coli pJN105L (P. aeruginosa, LasR), P. aeruginosa MW1 yfp (LasR), E. coli pJN105Q (P. aeruginosa, QscR), A. tumefaciens WCF (TraR), and V. fischeri ES114-luxI (LuxR).
We screened our AHL libraries for agonistic and antagonistic activity against QscR using a previously reported, recombinant E. coli strain that reports QscR activity via the production of β-galactosidase (β-gal) from a promoter fusion. […] All AHLs were examined at 5 μM concentrations.

[2] = target: QscR:DNA binding (PA1897 promoter) (Pseudomonas aeruginosa, UniProt G3XD77)
From the text: We sought to obtain further insights into the mechanism of QscR modulation by non-native AHLs. […] We therefore performed electromobility shift assays (EMSA) on purified QscR and radiolabeled PA1897 promoter in the presence of selected QscR antagonists and 1.

T1 sequence (P33905 whole entry): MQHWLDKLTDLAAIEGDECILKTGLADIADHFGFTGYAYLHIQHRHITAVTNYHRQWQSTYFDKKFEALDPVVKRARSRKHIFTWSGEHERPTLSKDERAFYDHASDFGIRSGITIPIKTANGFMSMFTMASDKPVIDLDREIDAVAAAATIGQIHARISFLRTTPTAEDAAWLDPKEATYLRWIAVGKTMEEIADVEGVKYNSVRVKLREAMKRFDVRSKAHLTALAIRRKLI
T2 sequence (P35327 whole entry): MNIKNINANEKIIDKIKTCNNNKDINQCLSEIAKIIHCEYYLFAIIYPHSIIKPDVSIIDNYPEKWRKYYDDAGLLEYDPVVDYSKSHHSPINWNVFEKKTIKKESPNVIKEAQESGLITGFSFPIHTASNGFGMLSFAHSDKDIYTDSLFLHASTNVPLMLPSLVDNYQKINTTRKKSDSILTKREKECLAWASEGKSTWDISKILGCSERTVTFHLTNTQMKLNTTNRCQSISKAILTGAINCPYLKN
Sequence of QscR:DNA binding (PA1897 promoter) (G3XD77 entry or part of it): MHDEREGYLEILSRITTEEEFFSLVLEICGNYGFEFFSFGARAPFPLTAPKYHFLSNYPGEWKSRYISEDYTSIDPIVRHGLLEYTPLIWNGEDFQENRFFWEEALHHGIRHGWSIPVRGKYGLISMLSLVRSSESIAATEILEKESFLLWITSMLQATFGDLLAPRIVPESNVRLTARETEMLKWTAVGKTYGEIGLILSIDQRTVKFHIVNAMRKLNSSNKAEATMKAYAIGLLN
T3 sequence (G3XD77 entry or part of it): as above

Molecule | A. tumefaciens-TraR Activation [%] (TraR) | A. tumefaciens-TraR Inhibition [%] (TraR) | V. fischeri-LuxR Inhibition [%] (LuxR) | activation at 10 µM (TraR) [%] | inhibition at 10 µM (TraR) [%] | IC50 (LuxR) [nM] | inhibition at 5 µM (LuxR) [%] | other results
3-nitro PHL [B17] | 0 | 46 | −15 |  |  |  |  | activity in wild-type V. fischeri [1]: super-agonistic activity
O=C(Cc1ccc(Br)cc1)N[C@H]1CCOC1=O [A17, 4-bromo-phenylacetanoyl HL, reference compound] |  | 88 | 79 | 1 |  |  |  | IC50 (TraR): 4730 nM
O=C(CCCc1c[nH]c2ccccc12)N[C@H]1CCOC1=O [A18, indole AHL, reference compound] | 0 | 35 | 72 |  |  |  |  | 
O=C(Cc1ccc(-c2ccccc2)cc1)NC1CCOC1=O (stereo not drawn) [B21, 4-phenyl PHL] |  |  |  | 0 | ~70 | 1060 | ~70 | 
O=C(Cc1ccc(-c2ccccc2)cc1)N[C@H]1CCOC1=O [C18, 4-phenyl PHL] |  |  |  | 0 | ~70 | 1060 |  | Activation (%) (TraR; A. tumefaciens-TraR, Library C primary agonism screen): 0%; Inhibition (%) (TraR; A. tumefaciens-TraR, Library C primary antagonism screen): 67%; Inhibition (%) (LuxR; V. fischeri-LuxR, Library C primary antagonism screen): 79%; IC50 (QscR): 30 nM; inhibition of OdDHL-dependent QscR:DNA binding ([2]; 100:1 ratio with OdDHL): 85%; reduction of QscR:DNA binding ([2]; 1000:1 ratio vs. OdDHL): 100%; inhibition of OdDHL-dependent QscR:DNA binding ([2]; EMSA): capable of inhibiting OdDHL (1)-dependent QscR:DNA binding
O=C(Cc1ccc(Br)cc1)N[C@H]1CCOC1=O [compound 8, N-(4-bromo-phenylacetanoyl)-L-homoserine lactone, reference compound] | 1 |  |  |  | ~90 | 3700 | ~76 | IC50 (TraR; read-out: TraR IC50, determined against 100 nM OOHL): 4730 nM
